We go through five molecules from patent publication US12472269B2, “Liver-specific inducible promoters and methods of use thereof” (ASKBIO INC., priority 2019, dated 2025).

In data set [1] the test system is Huh7 cell line stably expressing human CAR. As to the kind of experiment: Induction of PBREM variants by CITCO and flavone in Huh7 cell line stably expressing human CAR. The class given is cell-based. The text has this:
(§1) In the earlier examples, variants of the promoters used contained a mouse PBREM element. To confirm our expectation that the human PBREM element could also be used, we also assessed the inducibility of the human PBREM; this is potentially relevant because one aim of this project is to provide inducible promoters for use in human gene therapy, and the human sequence may have some advantages. In addition, we also assessed human and mouse hybrids of the PBREM element to determine if we could modulate or improve the inducibility and background level of the promoters. Such new combinations would not be found in nature in any context, and would likely to have novel traits, e.g. background and induction level. The constructs were tested in the PGL4.10 backbone as previously described, and are listed below in Table 2. These were: Human NR1×3-Min TK (3× human NR1 region with MinTK minimal promoter); Human PBREM-minTK (human PBREM with MinTK minimal promoter); hNR1-mNF1-hNR2-Min TK (Human Mouse Human hybrid with MinTK minimal promoter); hNR1-mNFI mNR2-Min TK (Human Mouse Mouse hybrid with MinTK minimal promoter); mNR1-hNF1-mNR2-Min TK (Mouse Human Mouse hybrid with MinTK minimal promoter); mNR1-hNF1-hNR2-Min TK (Mouse Human Human hybrid with MinTK minimal promoter); hPB-SV40 (human PBREM with SV40 minimal promoter); and MHM-SV40 (Mouse Human Mouse hybrid with SV40 minimal promoter)—SEQ ID NOs: 59 to 66, respectively.
(§2) These constructs were tested in the Huh7 stable cell line and primary hepatocytes as previously described. In addition, to testing the constructs with the traditional human CAR activator CITCO we also tested the natural compound flavone. […] CITCO has been predicted to be relatively unstable in vivo, and there is no data available for its safety of use in humans, and is therefore preferred for use only in tissue culture. Furthermore, the in vivo results presented above used phenobarbital as the inducer. In some contexts the use of phenobarbital may be undesirable, even if at 10× less than the recommended dose (which appears to be possible in view of the data above). Therefore, flavone may be a more desirable inducer that mitigates any safety or regulatory issues.
(§3) Expression and induction from these promoters was assessed using both CITCO and flavone in both the Huh7 CAR expressing stable cell line and primary hepatocytes as previously described.

Another data set has as its system primary hepatocytes. In words: Induction of PBREM variants by CITCO and flavone in primary hepatocytes. It is filed as cell-based, human.
From the text: as §1, §2, §3

For a further data set, the target named is T1, human CAR (Homo sapiens, UniProt Q14994).
T1 sequence (Q14994 1-352): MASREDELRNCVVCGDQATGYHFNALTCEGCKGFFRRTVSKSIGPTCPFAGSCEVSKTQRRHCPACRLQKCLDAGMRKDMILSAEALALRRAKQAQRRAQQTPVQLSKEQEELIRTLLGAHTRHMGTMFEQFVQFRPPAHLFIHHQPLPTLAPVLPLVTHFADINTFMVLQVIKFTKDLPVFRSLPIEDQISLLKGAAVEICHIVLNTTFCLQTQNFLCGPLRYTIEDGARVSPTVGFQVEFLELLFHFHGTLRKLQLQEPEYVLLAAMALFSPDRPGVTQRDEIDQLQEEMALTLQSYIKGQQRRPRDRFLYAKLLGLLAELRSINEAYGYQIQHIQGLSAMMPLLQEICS
The note with it: cited from earlier work.

Where [2] appears, read: monomers compared with PB1 (FIG. 9), multimers with PB1-2 (FIG. 11).
The mark [3] stands for this setting: monomers compared with PB1 (FIG. 10), multimers with PB1-2 (FIG. 12).

As to “hPB: human PBREM element (SEQ ID NO: 2), tested with Min-TK and SV40 minimal promoters (DNA ACTGTACTTTCCTGACCCTGAAGAGGTGGCAGCATGGACTTTCCTGAACCA; expressed or natural sequence; listed as Homo sapiens)”, the “performance (inducibility and background) compared with PB1” value in data set [1] (CITCO and flavone, FIG. 9) is recorded as “almost identical manner to the mouse PBREM (PB1)”; in the data set with primary hepatocytes (CITCO and flavone, FIG. 10), “almost identical manner to the mouse PBREM (PB1)”.
In the case of “MHM hybrid: Mouse Human Mouse hybrid PBREM element (SEQ ID NO: 74), tested with Min-Tk and SV40 minimal promoters (DNA TCTGTACTTTCCTGACCTTGAAGAGGTGGCACCATCAACTTGCCTGACACC; expressed or natural sequence)”, the induction entry was “good induction” in data set [1] (CITCO and flavone); “good induction” in the data set with primary hepatocytes (CITCO and flavone). The background result (in data set [1] (setting [2]); in the data set with primary hepatocytes (setting [3])) was “lower background” in each case. Moreover, the “overall activity / expression level” value (in data set [1] (setting [2]); in the data set with primary hepatocytes (setting [3])) was “lower overall activity” each time.
`Clc1cnc(Oc2ccc(Oc3ncc(Cl)cc3Cl)cc2)c(Cl)c1` [TCPOBOP, 1,4-Bis[2-(3,5-dichloropyridyloxy)]benzene]: the “activation of human CAR” value at human CAR is given as “does not activate human CAR”.
For the molecule `O=c1cc(-c2ccccc2)oc2ccccc12` [flavone, reference compound], the “activation of human CAR” value on human CAR is “previously been reported to activate human CAR”. Besides, in data set [1] (administered to cells), the “concentration demonstrated suitable to induce expression” value stood at 30 µM.

B1: Human NR1x3-MinTK: 3× human NR1 region with MinTK minimal promoter, SEQ ID NO: 59 (nucleic acid)
DNA: ACTGTACTTTCCTGACCCTGAAGAGACTGTACTTTCCTGACCCTGAAGAGACTGTACTTTCCTGACCCTGAAGAGGATCCGGCCCCGCCCAGCGTCTTGTCATTGGCGAATTCGAACACGCAGATGCAGTCGGGGCGGCGCGGTCCGAGGTCCACTTCGCATATTAAGGTGACGCGTGTGGCCTCGAACACCGAGCGACCCTGCAGCGACCCGCTTAACAGCGTCAACAGCGTGCCGCAGATCTCGAGGAGCTTGGCGAGATTTTCAGGAGCT
modifications: Human NR1x3-Min TK
In the case of B1, the induction entry is listed as “only induced in the stable cell line” in data set [1] (CITCO and flavone); “less so in the primary cells” with primary hepatocytes (CITCO and flavone). The background entry (in data set [1] (setting [2]); in the data set with primary hepatocytes (setting [3])) was “relatively high background” throughout.
